Patent US4308210A, “Nanaomycin B and therapeutic compositions containing same” (The Kitasato Institute, priority 1976, dated 1981)
Values after ≈ are worked out from the molar mass of the structure shown. Where two headings read alike, the source gives them in different places.

Columns and labels:
[1] = tested on: Escherichia coli NIHJ (JC-2); assay: Antimicrobial spectrum, MIC, nutrient agar; format: cell-based; conditions: 48 h, nutrient agar (pH 7.0, 2 days, 37° C.)
Piricularia oryzae = assay: microbe, parasite or virus in culture; format: cell-based; conditions: 96 h, pH 6.4
[2] = tested on: Trichophyton interdigitale; assay: Antimicrobial spectrum, MIC, potato agar; format: cell-based; conditions: 96 h, potato agar (pH 6.4, 4 days, 27° C.)
Trichophyton purpureum = assay: Antimicrobial spectrum, MIC, potato agar; format: cell-based; conditions: 96 h, potato agar (pH 6.4, 4 days, 27° C.)
[3] = tested on: Xanthomonas oryzae N-5824; assay: microbe, parasite or virus in culture; format: cell-based; conditions: N5824, 48 h, pH 7
Microsporum gypseum 704 = assay: Antimicrobial spectrum, MIC, potato agar; format: cell-based; conditions: Nannizzia gypsea, 704, 96 h; potato agar (pH 6.4, 4 days, 27° C.)
Method: (§1) P potato agar (pH 6.4, 4 days, 27° C.)
(§2) MIC Minimal inhibitory concentration

Saccharomyces sake = assay: Antimicrobial spectrum, MIC, potato agar; format: cell-based; conditions: 96 h, potato agar (pH 6.4, 4 days, 27° C.)
Method: as §1, §2

[4] = tested on: Aspergillus niger ATCC 6275; assay: Antimicrobial spectrum, MIC, potato agar; format: cell-based; conditions: ATCC6275, 96 h, potato agar (pH 6.4, 4 days, 27° C.)
Method: as §1, §2

[5] = tested on: Gram-positive bacteria such as, for example Staphylococcus aureus; assay: Growth inhibition of Gram-positive bacteria (text summary of Table 1); format: cell-based
[6] = tested on: Tricophyton metagrophytes; assay: Treatment of dermatomycosis at the back of guinea pigs; format: in vivo; conditions: 0.01-1% solution in propylene glycol-ethanol (3:1, v/v), once daily for 8 days
Mycoplasma pneumonia = assay: Antimicrobial spectrum, MIC, PPLO agar; format: cell-based; conditions: 192 h, Eiken PPLO agar (pH 7.8, 8 days, 37° C.)
Method: (§3) E Eiken PPLO agar (pH 7.8, 8 days, 37° C.)
as §2

Mycoplasma gallisepticum [7] = assay: Therapeutic effect on chronic respiratory disease of chickens; format: in vivo
Mycoplasma gallisepticum [8] = assay: Growth inhibition of Mycoplasma gallisepticum (text summary of Table 1); format: cell-based; conditions: Mycoplasmoides gallisepticum, 192 h, read-out: growth inhibited at a concentration
Method: (§4) H Hokken PPLO agar (pH 7.8, 8 days, 37° C.)
as §3, §2

Salmonella typhimurium = assay: Antimicrobial spectrum, MIC, nutrient agar; format: cell-based; conditions: Salmonella enterica, 48 h, nutrient agar (pH 7.0, 2 days, 37° C.)
Method: (§5) Medium N nutrient agar (pH 7.0, 2 days, 37° C.)
as §2

[9] = tested on: Klebsiella pneumoniae PCI 602; assay: Antimicrobial spectrum, MIC, nutrient agar; format: cell-based; conditions: PCI602, 48 h, nutrient agar (pH 7.0, 2 days, 37° C.)
Method: as §5, §2

Mycobacterium smegmatis = assay: Antimicrobial spectrum, MIC, nutrient agar; format: cell-based; conditions: Mycolicibacterium smegmatis, 48 h; nutrient agar (pH 7.0, 2 days, 37° C.)
Method: as §5, §2

Shigella flexneri = assay: Antimicrobial spectrum, MIC, nutrient agar; format: cell-based; conditions: 48 h, nutrient agar (pH 7.0, 2 days, 37° C.)
Method: as §5, §2

Escherichia coli NIHJ = assay: Antimicrobial spectrum, MIC, nutrient agar; format: cell-based; conditions: 48 h, nutrient agar (pH 7.0, 2 days, 37° C.)
Method: as §5, §2

Pseudomonas aeruginosa = assay: Antimicrobial spectrum, MIC, nutrient agar; format: cell-based; conditions: 48 h, nutrient agar (pH 7.0, 2 days, 37° C.)
mycoplasma = assay: Antimycoplasma activity, paper disc method; format: cell-based
Method: Inhibitory zone is assayed by paper disc method (Eiken PPLO agar, pH 7.8,

[10] = tested on: Acholeplasma laidlawii (A) PG8; assay: Antimicrobial spectrum, MIC, PPLO agar; format: cell-based
Method: as §4, §3, §2

[11] = tested on: Acholeplasma laidlawii (B) Bml; assay: Antimicrobial spectrum, MIC, PPLO agar; format: cell-based; conditions: 192 h
Method: as §4, §3, §2

[12] = tested on: Mycoplasma gallisepticum KP-13; assay: Antimicrobial spectrum, MIC, PPLO agar; format: cell-based; conditions: Mycoplasmoides gallisepticum, KP13, 192 h
Method: as §4, §3, §2

[13] = tested on: Mycoplasma gallisepticum S-6; assay: Antimicrobial spectrum, MIC, PPLO agar; format: cell-based; conditions: Mycoplasmoides gallisepticum, S6, 192 h
Method: as §4, §3, §2

[14] = tested on: Mycoplasma gallisepticum 333P (Spiramycin resistant); assay: Antimicrobial spectrum, MIC, PPLO agar; format: cell-based; conditions: for MIC: Mycoplasmoides gallisepticum, 192 h
Method: as §4, §3, §2

[15] = tested on: Staphylococcus aureus FDA 209P (JC-1); assay: Antimicrobial spectrum, MIC, nutrient agar; format: cell-based; conditions: FDA209P, 48 h, nutrient agar (pH 7.0, 2 days, 37° C.)
Acute toxicity, LD50 = conditions: in vivo, ip; intra-penetrial injection into mouse
From the text: Accordingly, it can be said that nanaomycin B represents a new antibiotic which may be used as a medicament for human beings and animals.

[16] = pH 7.8, Eiken PPLO agar (pH 7.8, 8 days, 37° C.)
[17] = pH 7.8, Hokken PPLO agar (pH 7.8, 8 days, 37° C.)

Q: For CC1OC(CC(=O)O)CC2C(=O)c3cccc(O)c3C(=O)C12O (stereo not drawn) [Nanaomycin B], which MIC [1] is on record?
A: Its MIC is 500 µg/mL (≈ 1560 µM).

Q: What about the MIC (Piricularia oryzae) of the same molecule?
A: The MIC was 15.6 µg/mL (≈ 48.7 µM).

Q: And the MIC [2]?
A: The MIC was 12.5 µg/mL (≈ 39 µM).

Q: What about the MIC (Trichophyton purpureum) of the same molecule?
A: The MIC was 25 µg/mL (≈ 78.1 µM).

Q: And the MIC [3]?
A: Its MIC is 125 µg/mL (≈ 390 µM).

Q: And the MIC (Microsporum gypseum 704)?
A: Its MIC is 12.5 µg/mL (≈ 39 µM).

Q: And the MIC (Saccharomyces sake)?
A: The MIC was 62.5 µg/mL (≈ 195 µM).

Q: What about the MIC [4] of the same molecule?
A: Its MIC is 62.5 µg/mL (≈ 195 µM).

Q: And the MIC ([5]; Staphylococcus aureus, summary of Table 1, read-out: growth inhibited at a concentration)?
A: The MIC was 2 to 8 µg/mL (≈ 6.24 to 25 µM).

Q: What about the “activity on Gram-positive bacteria” value ([5]; in words) of the same molecule?
A: The value was “active”.

Q: What about the “therapeutic effect on erythema and scales” value [6] of the same molecule?
A: The value was “excellent therapeutic effect”.

Q: And the MIC (Mycoplasma pneumonia)?
A: Its MIC is 0.05 µg/mL (≈ 0.156 µM).

Q: And the “therapeutic effect on chronic respiratory disease” value (Mycoplasma gallisepticum [7])?
A: The value was “therapeutic effect”.

Q: What about the MIC (Mycoplasma gallisepticum [8]) of the same molecule?
A: The MIC was ≤ 0.1 µg/mL.

Q: What about the MIC (Salmonella typhimurium) of the same molecule?
A: The MIC was 62.5 µg/mL (≈ 195 µM).

Q: And the MIC [9]?
A: Its MIC is 31.3 µg/mL (≈ 97.7 µM).

Q: What about the MIC (Mycobacterium smegmatis) of the same molecule?
A: The MIC was 125 µg/mL (≈ 390 µM).

Q: And the MIC (Shigella flexneri)?
A: The MIC was 62.5 µg/mL (≈ 195 µM).

Q: What about the MIC (Escherichia coli NIHJ) of the same molecule?
A: The MIC was 15.6 µg/mL (≈ 48.7 µM).

Q: What about the MIC (Pseudomonas aeruginosa) of the same molecule?
A: Its MIC is > 500 µg/mL.

Q: And the zone of inhibition at 10 µg/mL (mycoplasma; Mycoplasma, 24 h, 10 μg/ml, Eiken PPLO agar, pH 7.8, 37° C., 1 day, read-out: Inhibitory Zone)?
A: The zone of inhibition at 10 µg/mL was 22.7 mm.

Q: What about the zone of inhibition at 100 µg/mL (mycoplasma; Mycoplasma, 24 h, 100 μg/ml, Eiken PPLO agar, pH 7.8, 37° C., 1 day, read-out: Inhibitory Zone) of the same molecule?
A: The zone of inhibition at 100 µg/mL was 32.6 mm.

Q: What about the “antimycoplasma activity compared with ethylkalafunginate and deoxyfrenolicin” value (mycoplasma; in words) of the same molecule?
A: Its value is “superior”.

Q: And the MIC ([10]; Acholeplasma laidlawii, 192 h, Hokken PPLO agar (pH 7.8, 8 days, 37° C.), read-out: MIC)?
A: The MIC was > 25 µg/mL.

Q: And the MIC ([10]; Eiken PPLO agar (pH 7.8, 8 days, 37° C.))?
A: Its MIC is > 25 µg/mL.

Q: And the MIC [11, 16]?
A: The MIC was > 25 µg/mL.

Q: What about the MIC [11, 17] of the same molecule?
A: The MIC was 25 µg/mL (≈ 78.1 µM).

Q: And the MIC [12, 17]?
A: The MIC was < 0.013 µg/mL.

Q: And the MIC ([12]; Eiken PPLO agar (pH 7.8, 8 days, 37° C.), read-out: MIC)?
A: Its MIC is 0.1 µg/mL (≈ 0.312 µM).

Q: And the MIC [13, 16]?
A: Its MIC is 0.1 µg/mL (≈ 0.312 µM).

Q: What about the MIC [13, 17] of the same molecule?
A: The MIC was < 0.013 µg/mL.

Q: What about the MIC [14, 16] of the same molecule?
A: The MIC was 0.05 µg/mL (≈ 0.156 µM).

Q: What about the MIC [14, 17] of the same molecule?
A: The MIC was 0.013 µg/mL (≈ 0.0406 µM).

Q: And the “antimicrobial activity on spiramycin-resistant Mycoplasma gallisepticum” value ([14]; in words)?
A: The value was “high antimicrobial activity”.

Q: And the MIC [15]?
A: The MIC was 2 µg/mL (≈ 6.24 µM).

Q: And the LD50 (Acute toxicity, LD50)?
A: The LD50 was 169 mg/kg.
